Laboratory results from patent US11752140B2, “Compositions comprising substituted benzofuroquinolizine and psychoactive drug” (VETCARE OY, priority 2016, dated 2023).

Experiments:
[1] = Plasma concentrations of butorphanol and midazolam in dogs after IM administration of composition with or without MK-467; conditions: for Peak plasma concentration / Time at which peak plasma concentration was reached from the IM administration: IM
Protocol: Plasma Concentrations of Butorphanol and Midazolam in Dogs after IM Administration of a Composition Comprising MK-467, Butorphanol, Midazolam and Medetomidine, Compared with Composition without MK-467
A liquid aqueous composition comprising MK-467, butorphanol tartrate, midazolam and medetomidine was administered to a dog intramuscularly (IM) to provide a dosage of MK-467 500 μg/kg, butorphanol 100 μg/kg, midazolam 200 μg/kg and medetomidine 20 μg/kg.
Five purpose-bred, adult beagles were used for this study.
Study design: A prospective, randomized, experimental cross-over study.
Each dog was treated for two times with a 14-day wash-out period:
Treatment 1. medetomidine (20 μg/kg)+butorphanol (100 μg/kg)+midazolam (0.2 mg/kg)
Treatment 2. medetomidine (20 μg/kg)+MK-467 (MK) (500 μg/kg)+butorphanol (100 μg/kg)+midazolam (0.2 mg/kg).
For treatment 1. 1 mL of medetomidine (Dorbene 1 mg/mL) was diluted with 1 mL of saline. For treatment 2. 25 mg of MK-467 was mixed with 1 mL of medetomidine, and 1 mL of saline was added. The mixture, butorphanol (Torpudor 10 mg/mL) and midazolam (Midazolam Hameln 5 mg/mL) were aspirated into a single syringe. The end volume of the injectable in both treatments was 0.09 mL/kg.
Dog was positioned laterally and the drugs were injected IM into the epaxial muscle. Central venous blood was sampled into EDTA-tubes at 0, 3, 6, 10, 15, 20, 25, 30, 40, 50, 60 and 90 minutes after drug administration. The plasma concentrations were analyzed with LC/MS/MS for plasma concentrations of dexmedetomidine, midazolam and butorphanol.

dogs [2] = conditions: MK-467 250, 500, 750 μg/kg with dexmedetomidine 10 μg/kg IV (Restitutti 2011); cited from earlier work
dogs [3] = conditions: medetomidine 20 μg/kg IM or 10 μg/kg IV alone (Rolfe 2012); cited from earlier work
[4] = in the presence of MK-467 500 μg/kg, with medetomidine 20 μg/kg, butorphanol 100 μg/kg, midazolam 200 μg/kg in the same syringe
[5] = without MK-467, medetomidine, butorphanol, midazolam in the same syringe
[6] = parenteral extravascular administration, composition with MK-467

| Compound | Peak plasma concentration [1, 4] [ng/mL] | Time at which peak plasma concentration was reached from the IM administration ([1]; with MK-467) [min] | Time at which peak plasma concentration was reached from the IM administration ([1]; without MK-467) [min] | Peak plasma concentration [1, 5] [ng/mL] | Time at which maximum plasma concentration was reached [1, 6] [min] | Time at which maximum plasma concentration was reached ([1]; without MK-467) [min] | Effect on bispectral index (BIS) values (dogs [2]) | Heart rate, Pvo(2) and cardiac index compared with baseline (dogs [3]) | MAP, SVR and oxygen extraction ratio compared with baseline (dogs [3]) |
| --- | --- | --- | --- | --- | --- | --- | --- | --- | --- |
| Oc1ccc2c(c1)[C@@]13CCCC[C@@]1(O)[C@@H](C2)N(CC1CCC1)CC3 [butorphanol] | 17 | ≤ 10 | ≤ 30 | 11 | 10 | 30 |  |  |  |
| Cc1ncc2n1-c1ccc(Cl)cc1C(c1ccccc1F)=NC2 [midazolam] | 133 | ≤ 5 | ≤ 30 | 71 | 5 | 20 |  |  |  |
| Cc1cccc([C@H](C)c2cnc[nH]2)c1C [Dexmedetomidine, (S)-4-[1-(2,3-Dimethylphenyl)ethyl]-3H-imidazole] |  |  |  |  |  |  | decreased BIS-values |  |  |
| Cc1cccc(C(C)c2cnc[nH]2)c1C (racemic) [medetomidine, (RS)-4-[1-(2,3-dimethylphenyl)ethyl]-3H-imidazole] |  |  |  |  |  |  |  | significantly lower | significantly higher |
